Data on two compounds can be found in patent US9181266B2, “2-piperidin-1-yl-acetamide compounds for use as tankyrase inhibitors” (NOVARTIS AG, priority 2011, dated 2015).

Assay [1] has as its system Non-small lung cancer ABC-1 cells. The experiment in a line: Cellular proliferation assay (CellTiter-Glo). Format: cell-based. As to conditions: Homo sapiens, 72 h; ABC-1 cells, 3 days of compound treatment; read-out: ABC-1 IC50.
Experimental: Cellular Proliferation Assay to Determine Compound Inhibition of Cancer Cell Growth
Viable cells were measured after 3 days of compound treatment using the CellTiter-Glo assay (Promega, G7570). Assay was performed following the manufacture protocol.
For assay [2], the target named is human tankyrase 1 PARP catalytic domain, TNKS1P (Homo sapiens (Human), UniProt O95271). The assay can be described thus: TNKS1 autoparsylation assay (LC/MS detection of nicotinamide). The following applies: read-out: TNKS1 AP IC50, 20 nM enzyme, 250 μM β-NAD+, 60 min.
Chain of human tankyrase 1 PARP catalytic domain, TNKS1P (O95271 1112-1317): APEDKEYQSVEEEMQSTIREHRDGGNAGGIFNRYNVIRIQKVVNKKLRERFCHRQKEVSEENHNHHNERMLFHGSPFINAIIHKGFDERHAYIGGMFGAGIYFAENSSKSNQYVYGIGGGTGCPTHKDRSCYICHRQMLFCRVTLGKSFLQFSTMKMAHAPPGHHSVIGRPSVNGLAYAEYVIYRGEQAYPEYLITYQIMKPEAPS
Experimental: Biochemical Assay to Determine Compound Inhibition of TNKS Enzyme Activity
The autoparsylation activity of the TNKS 1/2 or PARP1/2 enzymes was measured by the liquid chromatography-mass spectrometry (LC/MS) detection of nicotinamide as readout. Compound activity in inhibiting the TNKS and PARP autoparsylation was evaluated by IC50 measurements. […] For the background control wells, 10 μL of the 5× quenching solution per well was added prior to the addition of β-NAD^+. The % Inhibition was calculated as: (Control−Sample)/(Control−Background)*100.
The test system of assay [3] is Axin2 protein in SW480 cells. The experiment in a line: Cellular ELISA assay of Axin2 protein stabilization. The class given is cell-based. The following applies: Homo sapiens, 24 hrs, read-out: Axin AC50. The method in brief: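 SW480 colorectal cells seeded overnight, treated with compound, then lysed. Axin2 in lysates measured by sandwich ELISA: anti-Axin2 capture antibody coated at 1 μg/ml (pH 9.2), lysate 2 h at room temperature, biotinylated anti-Axin2 detection 2 h, then streptavidin-HRP 30 min.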

Assay [4] addresses tankyrase 2 protein PARP domain, TNKS2P (Homo sapiens (Human), UniProt Q9H2K2). The experiment in a line: TNKS2 autoparsylation assay (LC/MS detection of nicotinamide). The following applies: read-out: TNKS2 AP IC50, 20 nM enzyme, 250 μM β-NAD+, 60 min.
For assay [5], the system named is Wnt ligand-induced signaling in HEK293 cells. The experiment in a line: Wnt-responsive Super-TOpFlash (STF) luciferase reporter gene assay. The following applies: Homo sapiens, Wnt3A condition medium. Format: cell-based. The method in brief: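 HEK293 cells (8000/well, 5% FBS medium) treated with 20% mouse L-cell Wnt3A conditioned medium plus compounds in 10-point serial dilution; luciferase read next day. Inhibition calculated relative to Wnt3A-induced signal without compound and background without Wnt3A CM or compound.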
Background: Reporter assays use an easily measured gene product as a stand-in for the process of interest.

A further assay addresses Human PARP1 (Homo sapiens (Human), UniProt P09874). The assay can be described thus: PARP1 autoparsylation assay (LC/MS detection of nicotinamide). Format: biochemical. As to conditions: 20 nM enzyme, 250 μM β-NAD+, 60 min. On the procedure: (§1) The autoparsylation activity of the TNKS 1/2 or PARP1/2 enzymes was measured by the liquid chromatography-mass spectrometry (LC/MS) detection of nicotinamide as readout. Compound activity in inhibiting the TNKS and PARP autoparsylation was evaluated by IC50 measurements.

For another assay, the target named is PARP2 (Mus musculus (Mouse), UniProt O88554). The experiment in a line: PARP2 autoparsylation assay (LC/MS detection of nicotinamide). Format: biochemical. As to conditions: 20 nM enzyme, 250 μM β-NAD+, 60 min. On the procedure: as §1
Chain of PARP2 (O88554 whole entry): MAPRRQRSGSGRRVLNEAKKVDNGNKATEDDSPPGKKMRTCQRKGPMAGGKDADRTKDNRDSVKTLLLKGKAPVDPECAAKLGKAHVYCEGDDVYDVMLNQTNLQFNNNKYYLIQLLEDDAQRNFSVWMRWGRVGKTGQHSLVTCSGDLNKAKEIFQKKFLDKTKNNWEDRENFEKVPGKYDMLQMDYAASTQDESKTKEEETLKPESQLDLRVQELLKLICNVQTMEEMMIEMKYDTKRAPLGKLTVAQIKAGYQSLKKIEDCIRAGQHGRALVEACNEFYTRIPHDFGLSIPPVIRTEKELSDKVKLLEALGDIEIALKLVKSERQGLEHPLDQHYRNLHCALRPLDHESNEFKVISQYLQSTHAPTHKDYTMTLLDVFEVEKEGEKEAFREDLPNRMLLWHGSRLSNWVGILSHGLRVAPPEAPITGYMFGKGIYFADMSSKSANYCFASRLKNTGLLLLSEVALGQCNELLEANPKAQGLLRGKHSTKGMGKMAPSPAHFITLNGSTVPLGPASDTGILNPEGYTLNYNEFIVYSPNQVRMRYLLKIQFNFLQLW
Assay [6] relates to Herpes Simplex Virus (HSV). As to conditions: cited from earlier work.

Chain of Human PARP1 (P09874 whole entry): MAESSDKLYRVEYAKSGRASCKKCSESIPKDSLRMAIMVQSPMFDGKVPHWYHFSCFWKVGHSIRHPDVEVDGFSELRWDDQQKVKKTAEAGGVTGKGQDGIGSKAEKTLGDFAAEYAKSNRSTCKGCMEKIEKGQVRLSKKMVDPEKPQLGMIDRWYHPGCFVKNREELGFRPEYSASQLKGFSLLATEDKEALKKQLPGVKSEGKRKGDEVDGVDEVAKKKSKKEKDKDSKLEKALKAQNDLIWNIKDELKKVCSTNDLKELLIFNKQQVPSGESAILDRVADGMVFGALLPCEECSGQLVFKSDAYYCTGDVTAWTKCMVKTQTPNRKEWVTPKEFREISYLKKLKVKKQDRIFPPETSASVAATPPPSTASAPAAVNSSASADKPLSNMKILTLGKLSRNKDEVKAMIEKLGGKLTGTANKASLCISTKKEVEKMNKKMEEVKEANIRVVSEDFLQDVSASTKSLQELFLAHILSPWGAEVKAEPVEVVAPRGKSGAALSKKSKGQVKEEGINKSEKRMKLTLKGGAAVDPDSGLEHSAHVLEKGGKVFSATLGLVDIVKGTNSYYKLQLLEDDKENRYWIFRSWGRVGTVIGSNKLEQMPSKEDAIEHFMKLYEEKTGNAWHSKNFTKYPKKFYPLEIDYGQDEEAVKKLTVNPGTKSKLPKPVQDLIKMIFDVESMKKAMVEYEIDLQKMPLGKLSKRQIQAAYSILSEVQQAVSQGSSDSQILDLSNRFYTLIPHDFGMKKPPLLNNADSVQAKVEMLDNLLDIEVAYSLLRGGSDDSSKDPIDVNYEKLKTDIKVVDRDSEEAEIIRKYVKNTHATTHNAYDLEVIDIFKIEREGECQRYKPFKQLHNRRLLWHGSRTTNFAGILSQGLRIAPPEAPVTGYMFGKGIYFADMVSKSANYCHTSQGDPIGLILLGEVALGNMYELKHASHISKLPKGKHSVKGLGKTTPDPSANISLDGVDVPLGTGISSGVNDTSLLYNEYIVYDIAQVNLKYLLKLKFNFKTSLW
Chain of tankyrase 2 protein PARP domain, TNKS2P (Q9H2K2 959-1164): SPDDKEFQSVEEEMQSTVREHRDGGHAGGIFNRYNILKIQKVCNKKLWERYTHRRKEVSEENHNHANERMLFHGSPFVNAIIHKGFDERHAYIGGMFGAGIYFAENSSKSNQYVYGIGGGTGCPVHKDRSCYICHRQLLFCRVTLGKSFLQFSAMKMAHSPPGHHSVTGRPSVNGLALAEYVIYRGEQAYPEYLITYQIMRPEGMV

Turning to `COc1ccc(C(=O)C2CCN(CC(=O)NCc3nc4c(c(=O)[nH]3)COCC4)CC2)cc1C` [Example 93, 2-[4-(4-Methoxy-3-methyl-benzoyl)-piperidin-1-yl]-N-(4-oxo-3,5,7,8-tetrahydro-4H-pyrano[4,3-d]pyrimidin-2-ylmethyl)-acetamide], the 50% inhibitory concentration (IC50) (as a rule, the point on the concentration scale where inhibition reaches its midpoint) in assay [1] is 2010 nM; in assay [2], 33 ± 14 nM; in assay [4], 12 nM; in assay [5] it was 52 ± 12 nM; on Human PARP1 it was 17100 ± 800 nM; at PARP2, 4260 ± 210 nM. Besides, the AC50 (in general, the concentration giving half of the maximal activity seen) in assay [3] was 1160 ± 150 nM.
For the compound `Oc1nc(-c2ccc(C(F)(F)F)cc2)nc2c1CSCC2` [XAV939], in assay [6], the HSV viral growth entry is reported as “decreased viral growth” and the “HSV viral protein expression” value was “suppressed HSV viral protein expression”.
